Test results as given in doi:10.1101/2023.08.03.551817v2 (biorxiv, 2024).

Experiments:
Experiment in all cases: two-electrode voltage clamp, Xenopus oocytes
AKDF^19383 [1] = test system: T1, AKDF^19383; format: cell-based, Trichoplax adhaerens; conditions: pH 7.5; -80 mV; agonist
T1 construct: gene TRIADDRAFT_19383; codon-optimized, modified pSP64-poly(A); Xenopus laevis oocytes; homo-tetramer

AKDF^19383 [2] = test system: T1, AKDF^19383; format: cell-based, Trichoplax adhaerens; conditions: inhibition of constitutive current; pH 7.5; -80 mV
[3] = target: T2, GluN1/GluN2A NMDA receptor (channel pore) (Rattus norvegicus, UniProt P35439+Q00959); format: cell-based; conditions: glycine and glutamate present; pH 7.3; -60 mV; open-channel block kinetics
T2 construct: gene Grin1; pcDNA3.1 inserts; mRNA-injected Xenopus laevis oocytes; hetero-tetramer

[4] = target: T3, GluN1/GluN2A NMDA receptor (GluN1 ligand-binding site) (Rattus norvegicus, UniProt P35439, D732L); format: cell-based
T3 construct: gene Grin1; pcDNA3.1 inserts; mRNA-injected Xenopus laevis oocytes; hetero-tetramer

[5] = target: T4, GluN1/GluN2A NMDA receptor (GluN1 ligand-binding site) (Rattus norvegicus, UniProt P35439); format: cell-based
T4 construct: gene Grin1; pcDNA3.1 inserts; mRNA-injected Xenopus laevis oocytes; hetero-tetramer

## N[C@H](CO)C(=O)O [D-serine]
AKDF^19383 [1]
  EC50: 490 ± 120 µM
AKDF^19383 [2]
  % inhibition at 10 mM: ~ 50%

## C[C@]12N[C@H](Cc3ccccc31)c1ccccc12 [MK-801]
[3]
  two-electrode voltage clamp, Xenopus oocytes: very similar kinetics of inhibition of WT and mutant receptors (Fig. 3A)

## NCC(=O)O [glycine]
AKDF^19383 [2]
  % inhibition at 10 mM: ~ 50%

## C[C@H](N)C(=O)O [alanine]
AKDF^19383 [2]
  % inhibition at 10 mM: ~ 50%

## O=C(O)c1cc(O)c2c(Cl)cc(Cl)cc2n1 [5,7-dichlorokynurenic acid]
[4]
  IC50: 0.44 ± 0.12 µM
[5]
  IC50: 24.9 ± 5.2 µM
